# Literature values as cited in patent US20060058387A1, “Composition and method for treating skin conditions” (priority 2004, published 2006).
# How the values were obtained:
# [1] = children, dosage intakes of 200-800 mg/kg
# interstitial cystitis = settings: bladder instillations of a 50% aqueous solution
molecule,measurement,setting,value
"C[N+](C)(C)CC(O)CC(=O)[O-] (stereo not drawn) [carnitin, γ-Trimethyl-β-hydroxybutyrobetain]",side effects,[1],No side effects were observed
"CC1=C(/C=C/C(C)=C/C=C/C(C)=C/C(=O)O)C(C)(C)CCC1 [tretinoin, all-trans retinoic acid]",binding to plasma proteins,in vivo,highly bound
same,terminal elimination half-life,in vivo,30 to 120 min
same,oral bioavailability,oral,about 50%
same,time to peak plasma concentrations,oral administration,1 to 2 h
Sulphinyl-bis-methane [DMSO],effect on symptoms of interstitial cystitis,interstitial cystitis,appear to alleviate symptoms
